In publication PMC5485613, “A novel TRPM8 agonist relieves dry eye discomfort” (BMC Ophthalmology, 2017):

Columns and labels:
[1] = molecular target: T1, mouse TRPV1 (Mus musculus, UniProt Q704Y3); test: TRPV1 calcium imaging (Fura-2) in transfected KNRK cells; format: cell-based; conditions: 10 μM
T1 construct: expressed in transfected cells; host or cells: KNRK cells (rat kidney), transiently transfected
Description: (§1) To further examine the specificity of C3, tests were conducted on TRPV1 channels and TRPA1 channels expressed in Kirsten murine sarcoma virus transformed rat kidney (KNRK) cells. KNRK cells were cultured as a monolayer and maintained in Dulbeccos’s Modified Eagles’s Medium (Life Technologies), supplemented with 10% fetal bovine serum (Life Technologies), 100 units/mL penicillin and 100 μg/mL streptomycin, in an incubator of 5% CO2 at 37 °C. After suspension, the cells were coated on cover slips for 12 h, then transiently transfected with cDNA (pc3.1 DNA) for TRPV1 or TRPA1 with Lipofectamine 2000 (Invitrogen) for 24 h, and loaded with Fura-2 AM™ (Molecular Probes) for 40 min at 37 °C. After washing and recovery, KNRK cells were imaged at 340 and 380 nm excitation to detect free calcium influx. An increase of 50% of the 340/380 ratio was considered as the response threshold which were measured under masked conditions for plasmids. Compounds were applied to the bath and calcium response was acquired by an inverted Nikon fluorescence microscope with a CoolSnap HQ2 CCD camera (Photometrics, Tucson, AZ). Data were quantified offline with the Nikon-NIS program.

[2] = molecular target: T2, human TRPA1 (Homo sapiens, UniProt O75762); test: TRPA1 calcium imaging (Fura-2) in transfected KNRK cells; format: cell-based; conditions: 10 μM
T2 construct: expressed in transfected cells; host or cells: KNRK cells (rat kidney), transiently transfected
T2 sequence (O75762 whole entry): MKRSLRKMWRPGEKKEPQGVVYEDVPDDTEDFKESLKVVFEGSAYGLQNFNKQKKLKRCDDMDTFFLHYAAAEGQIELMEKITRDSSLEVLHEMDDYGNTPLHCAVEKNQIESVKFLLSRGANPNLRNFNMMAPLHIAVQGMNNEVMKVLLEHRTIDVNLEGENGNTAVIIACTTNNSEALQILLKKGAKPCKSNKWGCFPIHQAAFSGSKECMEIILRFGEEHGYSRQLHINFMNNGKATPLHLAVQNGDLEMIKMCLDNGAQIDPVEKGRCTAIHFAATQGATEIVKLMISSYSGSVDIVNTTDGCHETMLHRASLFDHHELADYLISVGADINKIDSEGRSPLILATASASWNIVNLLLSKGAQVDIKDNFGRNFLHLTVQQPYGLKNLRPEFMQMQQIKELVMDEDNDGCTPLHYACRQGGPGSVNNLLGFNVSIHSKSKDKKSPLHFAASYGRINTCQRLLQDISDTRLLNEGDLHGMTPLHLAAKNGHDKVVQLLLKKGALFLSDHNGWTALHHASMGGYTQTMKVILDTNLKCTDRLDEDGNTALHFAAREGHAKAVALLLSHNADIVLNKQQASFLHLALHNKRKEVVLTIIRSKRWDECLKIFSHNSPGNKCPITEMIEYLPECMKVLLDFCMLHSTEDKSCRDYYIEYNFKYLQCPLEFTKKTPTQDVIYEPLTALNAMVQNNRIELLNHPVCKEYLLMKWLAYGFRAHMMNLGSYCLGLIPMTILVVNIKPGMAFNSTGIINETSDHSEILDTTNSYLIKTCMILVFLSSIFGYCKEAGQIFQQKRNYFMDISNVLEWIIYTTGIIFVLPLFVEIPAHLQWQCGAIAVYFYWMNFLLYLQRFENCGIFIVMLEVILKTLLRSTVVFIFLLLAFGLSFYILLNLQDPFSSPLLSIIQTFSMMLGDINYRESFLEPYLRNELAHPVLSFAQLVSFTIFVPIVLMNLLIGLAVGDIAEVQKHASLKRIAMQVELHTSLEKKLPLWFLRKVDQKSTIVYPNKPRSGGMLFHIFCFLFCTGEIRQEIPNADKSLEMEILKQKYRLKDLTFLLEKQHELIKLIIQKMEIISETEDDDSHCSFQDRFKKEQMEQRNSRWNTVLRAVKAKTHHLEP
Description: as §1

[3] = molecular target: T3, human TRPM8 (Homo sapiens, UniProt Q7Z2W7); test: TRPM8 calcium assay (Fluo-8, FLIPR) in transfected CHO cells; format: cell-based; conditions: x Menthol
T3 construct: host or cells: CHO cells, stably transfected
T3 sequence (Q7Z2W7 whole entry): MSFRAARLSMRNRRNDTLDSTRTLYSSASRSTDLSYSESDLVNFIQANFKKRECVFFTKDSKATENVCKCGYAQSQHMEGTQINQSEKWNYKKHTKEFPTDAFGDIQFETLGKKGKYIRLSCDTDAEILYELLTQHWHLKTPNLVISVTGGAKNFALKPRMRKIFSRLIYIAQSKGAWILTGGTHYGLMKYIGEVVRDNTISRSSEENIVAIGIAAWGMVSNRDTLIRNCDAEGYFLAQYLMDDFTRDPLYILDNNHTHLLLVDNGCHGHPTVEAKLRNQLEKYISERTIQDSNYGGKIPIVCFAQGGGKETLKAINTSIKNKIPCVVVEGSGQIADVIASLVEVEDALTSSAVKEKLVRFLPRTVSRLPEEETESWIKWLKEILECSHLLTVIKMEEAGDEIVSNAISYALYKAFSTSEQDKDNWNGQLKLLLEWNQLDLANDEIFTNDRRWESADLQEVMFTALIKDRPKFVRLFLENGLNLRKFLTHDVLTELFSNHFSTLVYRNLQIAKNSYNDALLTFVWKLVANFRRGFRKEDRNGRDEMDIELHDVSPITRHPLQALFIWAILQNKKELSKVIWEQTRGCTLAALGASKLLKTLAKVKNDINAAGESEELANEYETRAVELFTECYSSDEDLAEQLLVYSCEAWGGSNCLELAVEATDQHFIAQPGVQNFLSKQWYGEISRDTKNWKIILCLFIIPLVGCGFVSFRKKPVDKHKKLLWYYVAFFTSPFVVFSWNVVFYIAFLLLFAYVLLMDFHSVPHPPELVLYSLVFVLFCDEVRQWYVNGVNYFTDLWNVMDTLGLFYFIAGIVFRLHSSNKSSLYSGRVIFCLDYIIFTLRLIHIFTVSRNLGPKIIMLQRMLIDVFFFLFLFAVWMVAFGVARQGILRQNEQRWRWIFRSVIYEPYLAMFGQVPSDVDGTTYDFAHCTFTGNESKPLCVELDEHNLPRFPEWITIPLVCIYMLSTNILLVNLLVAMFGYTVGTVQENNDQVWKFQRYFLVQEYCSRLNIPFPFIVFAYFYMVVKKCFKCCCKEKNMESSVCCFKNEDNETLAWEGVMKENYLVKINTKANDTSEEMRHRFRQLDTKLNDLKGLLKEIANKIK
Description: Compounds were tested on Chinese Hamster Ovary (CHO) cells stably transfected with human TRPM8 cDNAs using a Fluo-8 calcium kit and a Fluorescence Imaging Plate Reader ([…]™) instrument. […] Solutions were prepared by diluting stock solutions in a HEPES-buffered physiological saline (HBPS) solution. Test compound and control formulations were loaded in polypropylene or glass-lined 384-well plates, and placed into the FLIPR instrument (Molecular Devices Corporation, Union City, CA, USA). Each was tested at 8 concentrations with n = 4 replicates per determination. […] For […]™ assay, cells were plated in 384-well black wall, flat clear-bottom microtiter plates (Type: BD Biocoat Poly-D-Lysine Multiwell Cell Culture Plate) at approximately 30,000 cells per well. Cells were incubated at 37 °C overnight to reach a near confluent monolayer appropriate for use in a fluorescence assay. The test procedure was to remove the growth media and to add 40 μL of HBPS containing Fluo-8 for 30 min at 37 °C. 10 μL of test compound, vehicle, or control solutions in HBPS were added to each well and read for 4 min. Concentration-response data were analyzed via the FLIPR Control software that is supplied with the FLIPR System (MDS-AT) and fitted to a Hill equation.

[4] = test system: patients with dry eye disease; test: Four times daily application for 2 weeks in patients with dry eye disease (Expt 2); format: in vivo, human
Description: Initially, a total of 60 additional patients fulfilling the inclusion criteria were assessed for eligibility, and 54 subjects who decided to participate were randomized into two groups as described above (Additional file 1: Figure S4). Vehicle or C3 were prepared as 1 mL solutions placed into unit applicators called Swabdose™ made by Unicep Corporation, Sandpoint, ID. These applicators are singly encased in a polypropylene container with a 6.35 mm cotton tip attached to a 74.6 mm polystyrene handle. USP purified water (placebo units) or a C3 sample (2 mg/mL in USP purified water) was prepared onsite under clean conditions and packaged with automated equipment. Each subject was given 14 Swabdoses for the 2-week study period. The subjects were instructed to apply the cotton-tipped applicator to the edges of the closed eyelids once every 6 h per day for 14 days. The applicators were pre-weighed and the subjects were told to use to same applicator for each day and to save the applicator in a plastic bag at the end of the day. The applicators were collected, weighed and compared with the weight before application. TBUT, basal tear secretion, and corneal staining assessed by KEP scores were analyzed before and at 1 and 2 weeks thereafter. For TBUT, basal tear secretion, and KEP only the results from the right eye were scored for data analysis.
Three questionnaires were used at each patient visit to analyze the effects of treatment on ocular discomfort. Firstly, DED symptoms were assessed using a visual analogue scale (VAS) score of 1 to 10. Next, symptoms were assessed using the ocular surface disease index (OSDI) questionnaire, consisting of 12 questions graded on a scale from 0 to 4 (0 = “none of the time” and 4 = “all the time”). An overall score was calculated (0–100) by using the following equation: (25 × (sum of answered question scores/number of questions answered)). Participants were also asked to grade five symptoms associated with the CVS. The symptoms of fatigue, burning, dryness, blurred vision, and dullness of vision was ranked on a scale of 0 to 6 (0 = “no symptom”, 6 = “very severe symptom”) and the average aggregate score for the two test groups are reported.

[5] = test system: dry eye mice; test: Mouse dry eye model (extraorbital lacrimal gland removal): tear volume, blinking, corneal abrasion; format: in vivo; conditions: for Tear secretion (phenol-red thread wetting): mean ± SEM
Description: C57BL/6 J wild-type mice were purchased from Jackson Laboratory (Stock No. 000664). Adult male mice were anesthetized with xylazine ([…]) and ketamine ([…]) mixture and incisions of 5 mm were made in the skin between the eye and the ear, both extraorbital lacrimal glands were gently isolated by forceps and removed. As mouse has three pairs of lacrimal glands, removing the extraorbital ones will induce partially tear secretion deficiency, but still have other tear sources to be triggered. Sham mice received the same procedure without gland removal. Skin was sutured with 6–0 black monofilament nylon (Ethilon from Ethicon, Inc.). All mice received antibiotics (100 μL Enroflox™, intramuscular daily) and topical analgesia (2% lidocaine gel) for 2 days postoperative. Behavioral assays were done between 2 and 4 weeks after the surgery.
Tear volume was measured with phenol-red cotton threads (Zone-Quick; Showa Yakuhin Kako CO., Ltd., Tokyo, Japan) as described. The threads were held with forceps and applied to the lateral canthus for 30 s. Immediately afterwards the wetting of the thread was read in mm under a dissection microscope. Corneal abrasion was assessed under cobalt blue light after application of 0.5 μl of 0.25% fluorescein sodium (Bausch & Lomb Inc. Tampa, FL 33637). Grades of abrasion were classified with a grading system that is based on area of corneal staining. Grouping was blinded to the observers. Results were grouped according to the treatments after analysis.
To determine if C3 affected tear secretion, we tested its effect in mice. Mice were held firmly and 2 μL of C3 or vehicle was wiped gently on eyelid by pipette from nasal side to bitemporal. Tear secretion was increased by C3 in sham-operated animals and in mice in which the extraorbital lacrimal glands were surgically removed (Fig. 4a). […] The positive results in an animal model of DED justified further studies in human subjects.

[6] = 2 mg/mL four times a day, versus vehicle
[7] = 2 mg/mL four times a day, week 1 or week 2, n = 20
[8] = sham group or dry eye mouse model, single administration

T1 sequence (Q704Y3 whole entry): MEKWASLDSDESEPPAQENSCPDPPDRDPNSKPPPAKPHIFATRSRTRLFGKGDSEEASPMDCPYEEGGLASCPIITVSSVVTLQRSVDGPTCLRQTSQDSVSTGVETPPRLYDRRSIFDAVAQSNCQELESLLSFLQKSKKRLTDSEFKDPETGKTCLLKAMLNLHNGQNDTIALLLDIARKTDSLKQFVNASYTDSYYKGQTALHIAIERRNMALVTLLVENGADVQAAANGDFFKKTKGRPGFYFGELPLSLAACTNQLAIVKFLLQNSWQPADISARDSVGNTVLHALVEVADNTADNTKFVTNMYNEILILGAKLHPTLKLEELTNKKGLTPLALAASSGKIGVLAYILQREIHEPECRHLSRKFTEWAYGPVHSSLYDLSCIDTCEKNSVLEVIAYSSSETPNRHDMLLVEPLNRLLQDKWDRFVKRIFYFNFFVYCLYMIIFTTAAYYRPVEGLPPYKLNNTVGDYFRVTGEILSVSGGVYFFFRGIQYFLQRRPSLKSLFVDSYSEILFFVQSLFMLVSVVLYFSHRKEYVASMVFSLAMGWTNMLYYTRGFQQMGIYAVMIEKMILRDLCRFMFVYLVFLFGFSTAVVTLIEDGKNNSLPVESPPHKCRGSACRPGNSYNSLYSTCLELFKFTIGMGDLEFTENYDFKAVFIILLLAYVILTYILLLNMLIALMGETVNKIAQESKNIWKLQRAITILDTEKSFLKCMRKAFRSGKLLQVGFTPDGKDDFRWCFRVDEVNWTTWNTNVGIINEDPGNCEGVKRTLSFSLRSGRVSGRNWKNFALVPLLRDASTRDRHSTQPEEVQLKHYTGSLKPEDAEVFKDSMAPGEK

activation of TRPV1 (calcium response) [1]: inactive
activation of TRPA1 (calcium response) [2]: inactive
relative potency to l-menthol (menthol = 1) [3]: 4.0
SMILES: CCCCCCCCCP(=O)(C(C)C)C(C)C [C3, 1-diisopropylphosphorylnonane]
CVS type of symptoms ([4]; 2 mg/mL four times a day, 1 and 2 weeks): significantly improved
basal tear secretion ([4]; 2 mg/mL four times a day, 1 and 2 weeks, versus baseline and vehicle): significantly increased
severity of symptoms by VAS score [4, 6]: significantly improved at week 2 but not at week 1
total OSDI score [4, 6]: significantly improved at week 2 but not at week 1
KEP [4, 7]: no significant changes
TBUT [4, 7]: no significant changes
adverse effect (ocular pain, irritation, discomfort) ([4]; 2 weeks study): No significant adverse effect
Tear secretion (phenol-red thread wetting) ([5]; dry eye mice, n = 6, 2 μL wiped on eyelid): 1.3 ± 0.4 mm
Spontaneous blinking [5, 8]: not affected
corneal abrasion [5, 8]: not affected
Tear secretion (phenol-red thread wetting) ([5]; sham group, n = 5, 2 μL wiped on eyelid): 5.4 ± 0.5 mm
